According to patent US12708644B2, “Dendritic cell vaccination sequential to chemotherapy” (Excoso a.s., priority 2018, dated 2026):
Like-named read-outs stand apart in the source and are kept apart here. Marks after values point to notes of the source that are not given here.

Key:
[1] = test system: first-line patients of ovarian carcinoma; settings: cited from earlier work; for OS HR: compared to patients not treated with bevacizumab; for PFS HR: continuous after combination with carboplatin/paclitaxel
[2] = test system: women with newly diagnosed epithelial ovarian carcinoma
Description: The study was conducted as an open label, multicenter, three-arm phase II clinical trial in women with newly diagnosed epithelial ovarian carcinoma, who have undergone debulking surgery.
The planned number of chemotherapy cycles was 6 in all treatment groups (FIG. 1).
Results were calculated either by using as beginning of the trial period the time of first treatment or the time of randomization. Two pre-planned per protocol interim analyses of PFS and OS from the date of randomization were performed first at 6 months and second at 12 months after the last dose of standard of care chemotherapy of the last enrolled patient. […]
A log-rank test was used for comparing the PFS and OS distributions of the two treatment groups: • H01: PFS/OS group A=PFS/OS group C vs H11: PFS/OS group C≠PFS/OS group A, • H02: PFS/OS group B=PFS/OS group C vs H12: PFS/OS group C≠PFS/OS group B.
The hazard ratio (HR) was calculated using Cox proportional hazard regression. The estimate for the HR was based on fitting a proportional hazards regression model: λ(t)=λ0(t)*exp(βz), • wherein λ0(t) is the baseline hazard function for group C, λ(t) is the hazard function for group A/group B, z is a binary covariate (being 1 for group A/group B and 0 for group C), and exp(β) is the HR. Efficacy in the ITT Population

[3] = bevacizumab 7.5 mg/kg IV q3w, 12 months
[4] = bevacizumab 15 mg/kg IV q3w, 15 months
[5] = treatment group C (standard of care chemotherapy alone), shorter reporting time period

| Substance | OS HR [1, 3] | OS HR ([1]; bevacizumab 7.5 mg/kg IV q3w, 12 months, listed as Bevacizumab) | PFS HR [1, 3] | OS HR [1, 4] | OS HR ([1]; bevacizumab 15 mg/kg IV q3w, 15 months, listed as Bevacizumab) | PFS HR [1, 4] | Safety ([1]; side effects e.g. gastrointestinal perforation and fistulae, wound healing complications, hypertension, thromboembolism or haemorrhage, congestive heart failure, neutropenia and infections) | patients who have died ([2]; standard of care arm (group C), per-protocol population, more than 3.5 years after inclusion) | SAEs reported [2, 5] | patients with SAEs [2, 5] |
| --- | --- | --- | --- | --- | --- | --- | --- | --- | --- | --- |
| bevacizumab | 0.99 | 0.99^c | 0.86^c | 0.88 | 0.88^c | 0.7^c | an increased risk for |  |  |  |
| carboplatin and paclitaxel |  |  |  |  |  |  |  | about 40% | 14 | 9 |
